In brackets after ≈: the same amount, converted by molar mass. Read-outs that look alike come from different tables or passages of the source.
Experiments:
[1] = test system: MDR P. aeruginosa clinical isolates; test: Resistance phenotype (MICs of antibiotics) of MDR clinical isolates; assay type: cell-based, Pseudomonas aeruginosa; conditions: Pseudomonas aeruginosa
[2] = test system: MDR K. pneumoniae clinical isolates; test: as above; assay type: cell-based, Klebsiella pneumoniae; conditions: Klebsiella pneumoniae, read-out: MIC
[3] = test system: MDR A. baumannii clinical isolates; test: as above; assay type: cell-based, Acinetobacter baumannii; conditions: Acinetobacter baumannii
[4] = test system: MDR E. coli clinical isolates; test: as above; assay type: cell-based, Escherichia coli; conditions: Escherichia coli, read-out: MIC
[5] = test system: MDR E. cloacae clinical isolates; test: as above; assay type: cell-based, Enterobacter cloacae; conditions: Enterobacter cloacae, read-out: MIC
[6] = test system: wild-type E. coli ATCC 25922; test: microbe, parasite or virus in culture; assay type: cell-based, Escherichia coli; conditions: ATCC 25922; for MICcombo: antibiotic with dUSTBβP 3 at 8 μg/mL; for MIC: Escherichia coli, ATCC25922, 18 h, antibiotic alone (Supplementary Table 7), read-out: MICantibiotic
Experimental: (§1) The adjuvant activities of dUSTBβPs were evaluated using checkerboard assay as previously described ([Berry et al., 2019]). Overnight-grown bacterial culture diluted in saline to 0.5 McFarland turbidity was successively diluted 1:50 in MHB to achieve a final concentration of 5 × 10^5 CFU/mL for inoculation. The antibiotic and adjuvant were serially diluted 2-fold along the x-axis and y-axis, respectively, resulting in varying concentrations of both agents in each well. Subsequently, the 96-well plate was incubated with equal volumes of bacterial inoculum at 37°C for 18 h. Confirmation of turbidity was done using an EMax Plus microplate reader (Molecular Devices, United States) at a wavelength of 590 nm. Wells comprising MHB alone or in the presence of bacterial cells were used as negative or positive controls, respectively. Fractional inhibitory concentration index (FICI) is determined by adding the FICs of both antibiotic and adjuvant. The FIC of the antibiotic is calculated by dividing the MIC of the antibiotic in the presence of the adjuvant by the MIC of the antibiotic alone. Similarly, the FIC of the adjuvant is calculated by dividing the MIC of the adjuvant in the presence of the antibiotic by the MIC of the adjuvant alone. FICI ≤ 0.5, 0.5 < x ≤ 4, and >4 were deemed synergistic, additive, and antagonistic, respectively ([Meletiadis et al., 2010]).

[7] = test system: wild-type P. aeruginosa PAO1; test: microbe, parasite or virus in culture; assay type: cell-based, Pseudomonas aeruginosa; conditions: PAO1
Text: as §1, with “Overnight-grown” for “The adjuvant activities of dUSTBβPs were evaluated using checkerboard assay as previously described ([Berry et al., 2019]). Overnight-grown”, “Subsequently, the 96-well plate was incubated with equal volumes of bacterial inoculum at 37°C for 18 h.” left out, “alone.” for “alone. FICI ≤ 0.5, 0.5 < x ≤ 4, and >4 were deemed synergistic, additive, and antagonistic, respectively ([Meletiadis et al., 2010]).”

[8] = test system: wild-type A. baumannii ATCC 17978; test: Checkerboard assay; assay type: cell-based, Acinetobacter baumannii; conditions: ATCC 17978
Text: as §1, with “Overnight-grown” for “The adjuvant activities of dUSTBβPs were evaluated using checkerboard assay as previously described ([Berry et al., 2019]). Overnight-grown”, “Subsequently, the 96-well plate was incubated with equal volumes of bacterial inoculum at 37°C for 18 h.” left out, “alone.” for “alone. FICI ≤ 0.5, 0.5 < x ≤ 4, and >4 were deemed synergistic, additive, and antagonistic, respectively ([Meletiadis et al., 2010]).”

[9] = antibiotic with dUSTBβP 3 at 8 μg/mL

Row | Compound | MIC ([1]; 259-96196, read-out: MIC) [µg/mL] | MIC ([1]; 262-101856, read-out: MIC) [µg/mL] | MIC ([1]; 264-104354, read-out: MIC) [µg/mL] | MIC ([1]; 91433, read-out: MIC) [µg/mL] | MIC [2]; 113250 [µg/mL] | MIC [2]; 113254 [µg/mL] | MIC [2]; 116381 [µg/mL] | MIC ([3]; 92247, read-out: MIC) [µg/mL] | MIC ([3]; AB031, read-out: MIC) [µg/mL] | MIC ([4]; 94393 (mcr-1 +)) [µg/mL] | MIC ([4]; 94474 (mcr-1 +)) [µg/mL] | MIC [4]; 107115 [µg/mL] | MIC [5]; 117029 [µg/mL] | MIC [5]; 118564 [µg/mL] | MIC [5]; 121187 [µg/mL] | also measured
1 | NCC[C@H](O)C(=O)N[C@@H]1C[C@H](N)[C@@H](O[C@H]2O[C@H](CN)[C@@H](O)[C@H](O)[C@H]2O)[C@H](O)[C@H]1O[C@H]1O[C@H](CO)[C@@H](O)[C@H](N)[C@H]1O [AMK, amikacin] | > 64 | > 64 | 8 (≈ 13.7 µM) | > 32 | ≤ 1 | ≤ 1 | ≤ 1 | < 1 | 2 (≈ 3.42 µM) | 2 (≈ 3.42 µM) | 2 (≈ 3.42 µM) | 2 (≈ 3.42 µM) | 2 (≈ 3.42 µM) | 2 (≈ 3.42 µM) | 1 (≈ 1.71 µM) | MIC ([3]; AB027, read-out: MIC): > 64 µg/mL; MIC ([3]; LAC-4, read-out: MIC): 4 µg/mL (≈ 6.83 µM)
2 | Cc1nnc(SCC2=C(C(=O)O)N3C(=O)[C@@H](NC(=O)Cn4cnnn4)[C@H]3SC2)s1 [CFZ, cefazolin] | > 128 | > 128 | > 128 | > 128 | 1 (≈ 2.2 µM) | 1 (≈ 2.2 µM) | > 128 | 128 (≈ 282 µM) | > 128 | 1 (≈ 2.2 µM) | 4 (≈ 8.8 µM) | > 128 | > 128 | > 128 | 32 (≈ 70.4 µM) | MIC ([3]; AB027, read-out: MIC): > 128 µg/mL
3 | CO/N=C(\C(=O)N[C@@H]1C(=O)N2C(C(=O)[O-])=C(C[N+]3(C)CCCC3)CS[C@H]12)c1csc(N)n1 [CPM, cefepime] | > 64 | 32 (≈ 66.6 µM) | 32 (≈ 66.6 µM) | 16 (≈ 33.3 µM) | 1 (≈ 2.08 µM) | 1 (≈ 2.08 µM) | 16 (≈ 33.3 µM) | 4 (≈ 8.32 µM) | 4 (≈ 8.32 µM) | ≤ 0.25 | ≤ 0.25 | > 64 | ≤ 0.25 | 0.25 (≈ 0.52 µM) | 0.25 (≈ 0.52 µM) | –
4 | CO/N=C(\C(=O)N[C@@H]1C(=O)N2C(C(=O)O)=C(CSc3nc(=O)c(=O)[nH]n3C)CS[C@H]12)c1csc(N)n1 [CTR, ceftriaxone] | > 64 | 64 (≈ 115 µM) | > 64 | > 64 | – | – | – | – | – | – | – | – | – | – | – | –
5 | CO/N=C(\C(=O)N[C@@H]1C(=O)N2C(C(=O)O)=C(COC(C)=O)CS[C@H]12)c1csc(N)n1 [CTX, cefotaxime] | 2050 (≈ 4500 µM) | 128 (≈ 281 µM) | 2050 (≈ 4500 µM) | – | – | – | – | – | 16 (≈ 35.1 µM) | – | – | – | – | – | – | MIC [1]; 91433: 1020 µg/mL (≈ 2250 µM); MIC ([1]; 114228, read-out: MIC): 128 µg/mL (≈ 281 µM); MIC [3]: > 256 µg/mL
6 | O=C(O)c1cn(C2CC2)c2cc(N3CCNCC3)c(F)cc2c1=O [Ciprofloxacin] | – | – | – | – | – | – | – | – | – | – | – | – | – | – | – | MICcombo [6]: 0.002 µg/mL; MIC [6]: 0.008 µg/mL
7 | CCC[C@@H]1C[C@@H](C(=O)N[C@@H]([C@H]2O[C@H](SC)[C@H](O)[C@@H](O)[C@H]2O)[C@H](C)Cl)N(C)C1 [Clindamycin] | – | – | – | – | – | – | – | – | – | – | – | – | – | – | – | MICcombo [6]: 4 µg/mL; MIC [6]: 64 µg/mL; MICcombo [7, 9]: 128 µg/mL; MIC ([7]; Pseudomonas aeruginosa, 18 h, antibiotic alone (Supplementary Table 7), read-out: MICantibiotic): 2050 µg/mL (≈ 4820 µM); MICcombo [8, 9]: 64 µg/mL; MIC ([8]; Acinetobacter baumannii, ATCC17978, 18 h, antibiotic alone (Supplementary Table 7), read-out: MICantibiotic): 512 µg/mL
8 | C[C@@H](O)[C@H]1C(=O)N2C(C(=O)O)=C(S[C@@H]3CN[C@H](CNS(N)(=O)=O)C3)[C@H](C)[C@H]12 [DOR, doripenem] | > 1020 | 16 (≈ 38 µM) | 16 (≈ 38 µM) | 16 (≈ 38 µM) | – | – | – | – | – | – | – | – | – | – | – | MIC ([1]; 114228, read-out: MIC): 8 µg/mL (≈ 19 µM)

Reference: article PMC8733726, “Dioctanoyl Ultrashort Tetrabasic β-Peptides Sensitize Multidrug-Resistant Gram-Negative Bacteria to Novobiocin and Rifampicin” (Frontiers in Microbiology, 2021)
